According to ChEMBL document CHEMBL1649086, “Evaluation of novel N1-methyl-2-phenylindol-3-ylglyoxylamides as a new chemotype of 18 kDa translocator protein-selective ligand suitable for the development of positron emission tomography radioligands” (J Med Chem, 2011):
Calls of active or inactive are those of the source. The calls are words filed in the database; no cut-off is given here.

Tests used:
[1] = tested on: GABA-A receptor, central benzodiazepine site (Rattus norvegicus); experiment: Displacement of [3H]flumazenil from central benzodiazepine site of GABA-A receptor in rat cerebral cortex membrane after 90 mins
[2] = target: Translocator protein (Rattus norvegicus, UniProt P16257); experiment: Displacement of [3H]PK11195 from TSPO in rat kidney mitochondrial membrane
[3] = tested on: Plasma; experiment: Fraction unbound in monkey plasma at 0.155 to 0.859 nmol/kg, iv by PET analysis; type: ADME, organism-based, Macaca mulatta; settings: rhesus monkey, in vivo
[4] = Drug level in monkey putamen at 0.155 to 0.859 nmol/kg, iv after 40 mins; type: ADME, organism-based, Macaca mulatta; settings: rhesus monkey, in vivo

Sequence of Translocator protein (P16257 whole entry, looked up): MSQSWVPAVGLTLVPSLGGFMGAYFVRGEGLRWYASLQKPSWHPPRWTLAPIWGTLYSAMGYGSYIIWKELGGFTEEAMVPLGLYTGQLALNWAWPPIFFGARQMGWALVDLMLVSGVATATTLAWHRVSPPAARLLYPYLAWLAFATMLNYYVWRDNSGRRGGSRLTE

Structure (SMILES)	Activity [1]	Ki [2]	Fu [3]	SUV [4]
CCCCCCN(CCCCCC)C(=O)C(=O)c1c(-c2ccccc2)[nH]c2ccccc12	inactive	–	–	–
CN(Cc1ccccc1)C(=O)C(=O)c1c(-c2ccccc2)[nH]c2ccccc12	inactive	12 nM	–	–
CCCCCCN(CCCCCC)C(=O)C(=O)c1c(-c2ccccc2)n(C)c2ccccc12	inactive	0.299 nM	–	–
CCCCN(CCCC)C(=O)C(=O)c1c(-c2ccccc2)[nH]c2ccccc12	inactive	–	–	–
CCCN(CCC)C(=O)C(=O)c1c(-c2ccc([N+](=O)[O-])cc2)n(C)c2ccccc12	–	5.7 nM	–	–
CCCCCCN(CCCCCC)C(=O)C(=O)c1c(-c2ccc(F)cc2)[nH]c2ccccc12	inactive	–	–	–
CCN(Cc1ccccc1)C(=O)C(=O)c1c(-c2ccccc2)[nH]c2ccccc12	inactive	–	–	–
CCCCN(CC)C(=O)C(=O)c1c(-c2ccccc2)[nH]c2ccccc12	inactive	–	–	–
CCCCCN(C)C(=O)C(=O)c1c(-c2ccccc2)n(C)c2ccccc12	inactive	38.2 nM	–	–
CCCCCCN(CCCCCC)C(=O)C(=O)c1c(-c2ccc(F)cc2)n(C)c2ccccc12	inactive	1.07 nM	–	–
CCCN(CCC)C(=O)C(=O)c1c(-c2cc[11c]([N+](=O)[O-])cc2)n(C)c2ccccc12	–	–	0.71%	2.32
CN(Cc1ccccc1)C(=O)C(=O)c1c(-c2ccc(F)cc2)n(C)c2ccccc12	inactive	6.77 nM	–	–
CCN(Cc1ccccc1)C(=O)C(=O)c1c(-c2ccccc2)n(C)c2ccccc12	inactive	2.92 nM	–	–
CCCN(CCC)C(=O)C(=O)c1c(-c2ccccc2)n(C)c2ccc(F)cc12	inactive	23.7 nM	–	–
CN(Cc1ccccc1)C(=O)C(=O)c1c(-c2ccc(F)cc2)[nH]c2ccccc12	inactive	1.8 nM	–	–
CCCN(CCC)C(=O)C(=O)c1c(-c2ccccc2)n(C)c2ccccc12	inactive	19.5 nM	–	–
CCCCN(C)C(=O)C(=O)c1c(-c2ccccc2)[nH]c2ccccc12	inactive	–	–	–
CCCN(CCC)C(=O)C(=O)c1c(-c2ccc(F)cc2)[nH]c2ccccc12	inactive	–	–	–
CCCN(CCC)C(=O)C(=O)c1c(-c2ccccc2)[nH]c2ccc(F)cc12	inactive	–	–	–
CCCCN(C)C(=O)C(=O)c1c(-c2ccccc2)n(C)c2ccccc12	inactive	190 nM	–	–
CCCN(CCC)C(=O)C(=O)c1c(-c2ccc(F)cc2)n(C)c2ccccc12	inactive	19.8 nM	–	–
CCCCN(CC)C(=O)C(=O)c1c(-c2ccccc2)n(C)c2ccccc12	inactive	60.2 nM	–	–
CCCCN(CCCC)C(=O)C(=O)c1c(-c2ccccc2)n(C)c2ccccc12	inactive	0.3 nM	–	–
CN(Cc1ccccc1)C(=O)C(=O)c1c(-c2ccccc2)n(C)c2ccccc12	inactive	20.9 nM	–	–
CCCCCN(C)C(=O)C(=O)c1c(-c2ccccc2)[nH]c2ccccc12	inactive	–	–	–
CCCN(CCC)C(=O)C(=O)c1c(-c2ccccc2)[nH]c2ccccc12	inactive	–	–	–
